# From US6900198B2, “Synthetic catalytic free radical scavengers useful as antioxidants for prevention and therapy of disease” (Eukarion, Inc., priority 1995, dated 2005)
# What was measured:
# [1] = system: endotoxin-induced ALI in pigs; experiment: Acute lung injury in endotoxemic pigs; assay type: in vivo; conditions: treatment begun prior to LPS infusion
# Method: All pigs were pre-treated at T=−18 h with Escherichia coli 0111:B4 LPS (20 μg/kg). Pigs in the RL group (n=4) received no further treatment. […] Lung wet-to-dry weight ratio was determined post-mortem. Lung lipid peroxidation was estimated fluorometrically by measuring thiobarbituric acid reactive products in the lipid fraction of lung parenchymal tissue harvested at T=300 min.
# SJL female mice = experiment: Experimental Autoimmune Encephalitis (EAE); assay type: in vivo
# Excerpt: EAE is an animal model of multiple sclerosis.
# Mice in both groups were immunized with an encephalitogenic PLP peptide in complete Freund's adjuvant subcutaneously, followed by Petrussis Toxin (IV). Petrussis toxin was repeated on day 3 post immunization.
# Animals were scored as follows:
# Stage I: Limp tail syndrome
# Stage II: Hind leg paralysis
# Stage III: Hind leg paralysis-Dragging movement
# Stage IV: Paralytic immobility, weight loss
# [2] = system: dopaminergic neurons in mouse striatum; experiment: 6-OHDA in mice, 3H-mazindol binding in striatal homogenates; assay type: in vivo; conditions: C7 4×66 mg/kg; 6-OHDA 50 μg i.c.v.
# Method: 6-OHDA in mice. Adult male CFW mice were anesthetized with ketamine and rumpun, and immobilized in a stereotaxic device. 6-OHDA, as the hydrobromide salt, was dissolved in normal saline with 1% ascorbate, and 50 μg was administered in lateral ventricle by means of a 10 μl Hamilton syringe. […] Animals were sacrificed 7 days later, and neuronal pathology was assessed by measuring ^3H-mazindol binding in striatal homogenates.
# [3] = Peroxidase activity, H2O2-dependent oxidation of ABTS; assay type: biochemical; conditions: C7 with 29 units/ml bovine liver catalase, 10 mM H2O2
# Method: (§1) Peroxidase activity was assayed by monitoring the hydrogen peroxide-dependent oxidation of 2,2′-azino-bis(3-ethylbenzthiazoline-6) sulfonic acid (ABTS) spectrophotometrically. Standard assay mixtures consisted of 50 mM sodium phosphate, pH 8.1, 0.9% sodium chloride, 0.5 mM ABTS, and H2O2 and salen manganese complex as indicated. Where indicated, 50 mM sodium phosphate buffers of pH 6.0 or pH 7.1 were substituted. Assays were conducted at 27±0.2° C. ABTS oxidation was monitored at 740 or 500 nm to eliminate interference by the salen manganese complexes, many of which absorb in the vicinity of the λmax of oxidized ABTS, and to avoid absorbance values that exceeded the linear range of the spectrophotometer. The amount of oxidized ABTS was estimated using an Δε740 of 20,300 M^−1cm^−1 or an Δε500 of 3400 M^−1cm^−1 calculated based upon the published molar extinction coefficient oat 405 nm (36,800).
# Compounds were assayed for SOD as described under Experimental procedures, using cytochrome C as acceptor. The concentration of each compound showing half-maximal activity in this assay is presented. Catalase and peroxidase activities were conducted as described under Experimental Procedures, with 10 μM salen manganese complex. The H2O2 concentration was 10 mM and 0.2 mM in the catalase and peroxidase assays, respectively. Where denoted, “nd” means that the assay was not performed on this compound.
# Catalase and peroxidase activities were assayed as described in Example 2. Catalase assays contained 10 μM salen-manganese complex and 10 mM hydrogen peroxide. Peroxidase assays contained 10 μM salen-manganese complex and 0.2 mM hydrogen peroxide. Glucose-glucose oxidase toxicity assays were performed using human dermal fibroblasts as described in Example 2.
# neurons = experiment: Amyloid peptide toxicity in neurons in vitro; assay type: cell-based
# Hippocampal slices = experiment: Lactic acid (acidosis)-induced lipid peroxidation in hippocampal slices; assay type: cell-based, Sprague-Dawley rats; conditions: 50 μM; 30 mM lactate, pH 5.0, 100 minutes
# Method: Hippocampal slices (400 μm thick) were obtained from Sprague-Dawley rats (150-200 g) and collected in preoxygenated (95% O2/5% CO2) Krebs-Ringer phosphate medium (pH 7.4) containing NaCl 120 mM, KCl 5 mM, CaCl2 1.3 mM, MgCl2 1.2 mM, NaPhosphate 16 mM (pH 7.4) and glucose 10 mM. After 15 minutes preincubation in a water bath at 35° C. under agitation, the buffer was replaced with the same buffer (control) or a modified buffer (lactate buffer) containing NaCl 90 mM, KCl 5 mM, CaCl2 1.3 mM, MgCl2 1.2 mM, NaPhosphate 16 mM and lactic acid 30 mM (pH 5.0). […] After 100 minutes, slices were collected and homogenized in 0.9 ml of TCA 5%, whereas 0.35 ml of TCA 5% was added to 0.5 ml of the incubation medium. Lipid peroxidation was measured by adding 0.25 ml of a thiobarbituric acid reagent (TBAR) to 0.85 ml of the TCA extracts and incubating the mixture for 60 minutes at 85-93° C. Lipids were then extracted with 2×0.5 ml 1-butanol by vortexing for 10 seconds, then centrifuging at 2,000 rpm for 10 minutes. The absorbance of peroxidized lipids in the alcohol phase was measured in a spectrophotometer at 532 nm. Data were expressed as nmoles of malondialdehyde (MDA) using authentic MDA to establish a standard curve. Proteins were measured from an aliquot of the TCA extracts using the method of Bradford and the final results were calculated as nmoles MDA formed/mg protein. […]
# [4] = system: dopaminergic neurons in mouse brain; experiment: MPTP animal model of Parkinson's disease, mazindol binding
# Method: This model is now widely accepted in the art and is used for evaluating potential therapeutic agents for this disease.
# Tritiated mazindol was used for binding studies on samples of the globus pallidus, caudate nucleus, and striatum of mouse brain according to conventional methods; specific binding of tritiated mazindol was determined autoradiographically or by membrane binding (specific binding to the membrane fraction). The experiment was performed over a 7 day period. Mice in the MPTP group were treated […] with MPTP alone (40 mg/kg each day on days 1 and 2). […] The animals were sacrificed after 7 days.
# MPTP in mice. Adult male CFW mice (25-33 g) were administered two injections of MPTP dissolved in normal saline (40 mg/kg, s.c.) 24 hours apart. […] Animals were sacrificed 7 days after the first MPTP injection, and neuronal pathology was assessed by the binding of ^3H-mazindol, a ligand for the dopamine transporter, to […] frozen brain sections or to striatal homogenates.
# [5] = system: acidosis-induced mucosal injury; experiment: In vitro model for acidosis-induced mucosal injury
# [6] = Peroxidase activity toward t-BHP, ABTS oxidation; assay type: biochemical; conditions: 1 mM t-BHP versus same concentration of H2O2
# Method: as §1
# (In comparison, horseradish peroxidase utilized t-BHP with an ABTS oxidation rate that was about 5.4% of the rate with H2O2).
smiles,measurement,setting,value
[Cl][Mn]1[O]c2ccccc2C=NCCN=Cc2ccccc2[O]1 [Compound C7],effect on manifestations of LPS-induced ALI,[1],prevents many of the manifestations of LPS-induced ALI
same,mice that developed symptomatic EAE,"SJL female mice; fifth week, three weeks after treatment was stopped, group of 10 mice",six
same,mice that developed symptomatic EAE,"SJL female mice; third week following immunization, 1 mg/mouse daily IP, control 8 of 20",one of 10
same,"effect on 6-OHDA-induced decrease in mazindol binding, contralateral striatum",[2],complete protection
same,"effect on 6-OHDA-induced decrease in mazindol binding, ipsilateral striatum",[2],significant reduction
same,total ABTS oxidized in the presence of added catalase,[3],18 µM
same,protection of neurons against amyloid peptide toxicity,neurons,protect neurons against amyloid peptide toxicity
same,lactate-induced increase in lipid peroxidation (malondialdehyde),Hippocampal slices,totally abolished the increase in lipid peroxidation
same,number of surviving dopaminergic neurons in mice treated with MPTP,"[4]; C7 33 mg/kg i.p. days 1-3, MPTP 40 mg/kg days 1 and 2, versus MPTP alone",approximately doubled
same,protection against the reduction in 3H-mazindol binding,"[4]; C7 3×33 mg/kg, i.p., MPTP 2×40 mg/kg, s.c.",significant (p<0.05) degree of protection
same,protection against the reduction in 3H-mazindol binding measured in striatal homogenates,"[4]; C7 3×33 mg/kg, i.p., MPTP 2×40 mg/kg, s.c., panel B",significant protection
same,"number of dopaminergic neurons in regions of the mouse brain, compound alone","[4]; C7 alone, no MPTP",not adversely affected
same,protection in acidosis-induced mucosal injury,[5],protective
same,ABTS oxidation rate with t-BHP as percent of the rate with H2O2,[6],about 0.5%
